Results: US12084459B2, “2-(4-{1-[6-(4-isopropyl-phenyl)-imidazo[2,1-b][1,3,4]thiadiazol-2-yl]-piperidin-4-ylmethyl}-piperazin-1-yl)-ethanol and use thereof” (Urifer Ltd., priority 2020, dated 2024)

Key:
[1] = insolubility level in PBS/Polysorbate-80 (Tween 80) solution; type: physicochemical; details: 0.5 mM and 1 mM in PBS/Polysorbate-80 (Tween 80) solution at 25° C. (FIG. 1A, 1B)
normal Epithelial cells = test: effect on normal epithelial cells; type: cell-based; details: FIG. 2
Description: Compound (I) was dissolved in 20% hydroxypropylcyclodextrane and the volume of administration (IP) was 10 ml/kg.

[2] = test system: metastatic colon cancer SW620 cells; test: viability / killing of SW620 cells; type: cell-based; details: E266 versus E260; compound (I) as tartarate salt in 0.5% Tween-80; FIG. 3
Description: (§1) The compound (I), as tartarate salt was dissolved in 0.5% Tween-80 to affect the viability of several cell lines as follows.
(§2) The effect of the compound (I) (E266) on the growth profile of cancer cells which express Fer was tested. The cells that were tested were: the metastatic colon cancer cell line—SW620, the metastatic pancreatic ductal-adenocarcinoma SU.86.86 cancer cell-line—SU.86.86, the metastatic Triple Negative breast cancer cell line—MDA-MB-231, and the metastatic prostate cancer cell-line—PC3. The effect of the compound (I) (E266) on FS11 cells, a non malignant fibroblastic cell line, was also studied.

[3] = test system: metastatic pancreatic ductal adenocarcinoma Su.86.86 cancer cells; test: viability / killing of Su.86.86 cells; type: cell-based; details: E266 versus E260; compound (I) as tartarate salt in 0.5% Tween-80; FIG. 4
Description: as §1, §2

[4] = test system: metastatic Triple negative MDA-MB-231 Breast cancer cells; test: viability / killing of MDA-MB-231 cells; type: cell-based; details: E266 versus E260; compound (I) as tartarate salt in 0.5% Tween-80; FIG. 5
Description: as §1, §2

[5] = test system: metastatic adenocarcinoma PC3 prostate Cancer cells; test: viability / killing of PC3 cells; type: cell-based; details: E266 versus E260; compound (I) as tartarate salt in 0.5% Tween-80; FIG. 6
Description: as §1, §2

H358 derived xenografts = H358 derived xenografts in Nude mice; type: in vivo; details: 25 mg/kg daily intraperitoneal in 1% Tween 80, H358 xenografts, FIG. 7
From the text: In vivo activity of the E266 (compound (I) of the present application) compared to that of the E260 (EP 2401283) in H358 derived xenografts in immune-compromised (Nude) mice.
In order to compare the relative efficacy of E266 and E260 in inhibiting the development and progression of malignant tumors in-vivo, the activity in xenograft model in mice was examined for both compounds. H358 derived xenografts in immune-compromised were elicited in (Nude) mice. The H358 cells, which are metastatic bronchioloalveolar carcinoma (BAC)-non-small cell lung cancer (NSCLC) cells, were subcutaneously injected to the back of the nude mice. When the developing xenografts reached 100 mm^3 size, the inflicted animals were divided into three groups, 10 mice in each group. One group received daily intraperitoneal injection of the solvent 1% Tween 80. This solvent/emulsifier is biocompatible and is approved for pharmaceutical applications in humans. The second group received daily intraperitoneal injection of 25 mg/kg E260 dissolved in 1% Tween 80, and the third group got daily intraperitoneal injection of 25 mg/kg, E266 dissolved in the 1% Tween 80, solvent. The progression of the elicited xenografts was monitored by measuring twice a week the volumes of the developing tumors.

- solubility (insolubility level) [1]: insoluble
Structure (SMILES): CC(C)c1ccc(-c2cn3nc(N4CCC(CN5CCN(C)CC5)CC4)sc3n2)cc1 [Compound E260, reference compound]
- effect on normal Epithelial cells (normal Epithelial cells): no effect
- killing metastatic colon cancer SW620 cells [2]: comparable activity
- killing metastatic pancreatic ductal adenocarcinoma Su.86.86 cancer cells [3]: comparable activity
- killing metastatic Triple negative MDA-MB-231 Breast cancer cells [4]: comparable activity
- killing metastatic adenocarcinoma PC3 prostate Cancer cells [5]: comparable activity
- progression of the developing tumors (xenograft volume) (H358 derived xenografts): failed to do so
